In ChEMBL document CHEMBL4138123, “Design, synthesis and biological evaluation of novel pyrazolochalcones as potential modulators of PI3K/Akt/mTOR pathway and inducers of apoptosis in breast cancer cells” (Eur J Med Chem, 2017):

What was measured:
MCF7 [1] = test: Cytotoxicity against human MCF7 cells assessed as growth inhibition after 48 hrs by MTT assay; assay type: functional, cell-based; details: MCF7, 48 h
MDA-MB-231 = test: Cytotoxicity against human MDA-MB-231 cells assessed as growth inhibition after 48 hrs by MTT assay; assay type: functional, cell-based; details: MDA-MB-231, 48 h
MCF7 [2] = test: Cell cycle arrest in human MCF7 cells assessed as accumulation at G2/M phase at 2 uM after 48 hrs by flow cytometric analysis (reference value: 8.1%); assay type: functional
MCF7 [3] = test: Cell cycle arrest in human MCF7 cells assessed as accumulation at G0/G1 phase at 2 uM after 48 hrs by flow cytometric analysis (reference value: 34.2%); assay type: functional
MCF7 [4] = test: Cell cycle arrest in human MCF7 cells assessed as accumulation at S phase at 2 uM after 48 hrs by flow cytometric analysis (reference value: 57.7%); assay type: functional
MCF7 [5] = test: Cell cycle arrest in human MCF7 cells assessed as accumulation at G0/G1 phase at 2 uM after 24 hrs by flow cytometric analysis (reference value: 18.4%); assay type: functional
MCF7 [6] = test: Cell cycle arrest in human MCF7 cells assessed as accumulation at S phase at 2 uM after 24 hrs by flow cytometric analysis (reference value: 79.1%); assay type: functional
MCF7 [7] = test: Cell cycle arrest in human MCF7 cells assessed as accumulation at G2/M phase at 2 uM after 24 hrs by flow cytometric analysis (reference value: 2.35%); assay type: functional
MCF7 [8] = test: Induction of apoptosis in human MCF7 cells assessed as early apoptotic cells at 2 uM after 24 hrs by Annexin-V FITC/propidium iodide staining-based FACS analysis (reference value: 0.5%); assay type: functional
MCF7 [9] = test: Induction of intrinsic apoptosis in human MCF7 cells assessed as effect on mitochondrial membrane depolarization by measuring mean fluorescence intensity at 2 uM after 18 hrs by DiOC6 staining-based FACS analysis (reference value: 463); assay type: functional
MCF7 [10] = test: Induction of intrinsic apoptosis in human MCF7 cells assessed as effect on mitochondrial membrane depolarization at 2 uM after 5 hrs by DiOC6 staining-based FACS analysis relative to control; assay type: functional
MCF7 [11] = test: Induction of intrinsic apoptosis in human MCF7 cells assessed as effect on mitochondrial membrane depolarization at 2 uM after 18 hrs by DiOC6 staining-based FACS analysis (reference value: 2%); assay type: functional
MCF7 [12] = test: Induction of apoptosis in human MCF7 cells assessed as late apoptotic cells at 2 uM after 24 hrs by Annexin-V FITC/propidium iodide staining-based FACS analysis (reference value: 5.4%); assay type: functional
MCF7 [13] = test: Induction of apoptosis in human MCF7 cells assessed as necrotic cells at 2 uM after 24 hrs by Annexin-V FITC/propidium iodide staining-based FACS analysis (reference value: 0.2%); assay type: functional
MCF7 [14] = test: Induction of apoptosis in human MCF7 cells assessed as viable cells at 2 uM after 24 hrs by Annexin-V FITC/propidium iodide staining-based FACS analysis (reference value: 93.9%); assay type: functional; details: MCF7, 24 h, read-out: Activity

Q: COc1ccc(-c2cc(/C=C/C(=O)c3cc(OC)c(OC)c(OC)c3)[nH]n2)cc1 was tested. Which IC50 (MCF7 [1]) did it give?
A: Its IC50 is 2 µM.

Q: What about the IC50 (MDA-MB-231) of the same compound?
A: Its IC50 is 2.4 µM.

Q: With O=C(/C=C/c1cc(-c2ccc3c(c2)OCO3)n[nH]1)c1ccccc1 as the compound, how does the IC50 (MCF7 [1]) read?
A: Its IC50 is 8 µM.

Q: And the IC50 (MDA-MB-231)?
A: Its IC50 is 12.1 µM.

Q: How did the IC50 (MCF7 [1]) turn out when COc1cc(-c2cc(/C=C/C(=O)c3ccc(Cl)cc3)[nH]n2)cc(OC)c1OC was run?
A: The IC50 was 11.6 µM.

Q: And the IC50 (MDA-MB-231)?
A: The IC50 was 26 µM.

Q: O=C1/C(=C/c2cc(-c3ccc4c(c3)OCO4)n[nH]2)Cc2ccccc21 was tested. Which IC50 (MCF7 [1]) did it give?
A: Its IC50 is 5.1 µM.

Q: What about the IC50 (MDA-MB-231) of the same compound?
A: Its IC50 is 8.3 µM.

Q: Which results are given for O=C(/C=C/c1cc(-c2ccc3c(c2)OCO3)n[nH]1)c1ccc(Cl)cc1?
A: IC50 (MCF7 [1]): 15 µM; IC50 (MDA-MB-231): 17.5 µM

Q: Which results are given for COc1cc(-c2cc(/C=C/C(C)=O)[nH]n2)cc(OC)c1OC?
A: IC50 (MCF7 [1]): 20.1 µM; IC50 (MDA-MB-231): 27.3 µM

Q: For COc1cccc2c1C(=O)c1c(O)c3c(c(O)c1C2=O)C[C@@](O)(C(=O)CO)C[C@@H]3O[C@H]1C[C@H](N)[C@H](O)[C@H](C)O1.Cl [DOXORUBICIN HYDROCHLORIDE], which Activity (MCF7 [2]) is on record?
A: The Activity was 0.8%.

Q: What about the Activity (MCF7 [3]) of the same compound?
A: Its Activity is 59.1%.

Q: And the Activity (MCF7 [4])?
A: Its Activity is 40.1%.

Q: And the Activity (MCF7 [5])?
A: The Activity was 82.5%.

Q: What about the Activity (MCF7 [6]) of the same compound?
A: Its Activity is 16.2%.

Q: What about the Activity (MCF7 [7]) of the same compound?
A: The Activity was 1.2%.

Q: Which IC50 (MCF7 [1]) does the source give for Nc1ccc(C(=O)/C=C/c2cc(-c3ccc4c(c3)OCO4)n[nH]2)cc1 here?
A: The IC50 was 3.5 µM.

Q: What about the IC50 (MDA-MB-231) of the same compound?
A: The IC50 was 5.1 µM.

Q: For COc1ccc(/C=C\c2cc(OC)c(OC)c(OC)c2)cc1O [COMBRETASTATIN A4], which Activity (MCF7 [8]) is on record?
A: The Activity was 6.1%.

Q: What about the Flu intensity (MCF7 [9]) of the same compound?
A: The Flu intensity was 558.

Q: What about the Activity (MCF7 [10]) of the same compound?
A: The Activity was 7.6%.

Q: And the Activity (MCF7 [11])?
A: Its Activity is 46%.

Q: And the Activity (MCF7 [2])?
A: Its Activity is 85.5%.

Q: And the Activity (MCF7 [3])?
A: The Activity was 2.4%.

Q: What about the IC50 (MCF7 [1]) of the same compound?
A: Its IC50 is 0.12 µM.

Q: And the Activity (MCF7 [4])?
A: Its Activity is 12%.

Q: What about the Activity (MCF7 [5]) of the same compound?
A: The Activity was 0%.

Q: What about the Activity (MCF7 [6]) of the same compound?
A: The Activity was 46.3%.

Q: And the Activity (MCF7 [12])?
A: The Activity was 16.8%.

Q: And the Activity (MCF7 [13])?
A: The Activity was 1.3%.

Q: And the Activity (MCF7 [7])?
A: Its Activity is 56.3%.

Q: And the viability at 2 µM (MCF7 [14])?
A: The viability at 2 µM was 75.8%.

Q: And the IC50 (MDA-MB-231)?
A: The IC50 was 0.17 µM.

Q: For O=C(/C=C/c1cc(-c2ccc3c(c2)OCO3)n[nH]1)c1ccc(Cl)c(Cl)c1, which IC50 (MCF7 [1]) is on record?
A: The IC50 was 10.8 µM.

Q: And the IC50 (MDA-MB-231)?
A: The IC50 was 14.8 µM.

Q: Which results are given for COc1ccc(-c2cc(/C=C/C(=O)c3ccc4c(c3)OCO4)[nH]n2)cc1?
A: IC50 (MCF7 [1]): 2.5 µM; IC50 (MDA-MB-231): 3.3 µM

Q: Which results are given for COc1ccc(C(=O)/C=C/c2cc(-c3cc(OC)c(OC)c(OC)c3)n[nH]2)cc1F?
A: IC50 (MCF7 [1]): 3 µM; IC50 (MDA-MB-231): 2.7 µM

Q: COc1cc(-c2cc(/C=C3\CCCCC3=O)[nH]n2)cc(OC)c1OC was tested. Which IC50 (MCF7 [1]) did it give?
A: The IC50 was 10.1 µM.

Q: And the IC50 (MDA-MB-231)?
A: Its IC50 is 17.8 µM.

Q: For CC(=O)/C=C/c1cc(-c2ccc3c(c2)OCO3)n[nH]1, which IC50 (MCF7 [1]) is on record?
A: Its IC50 is 21.6 µM.

Q: And the IC50 (MDA-MB-231)?
A: Its IC50 is 20.2 µM.

Q: Which IC50 (MCF7 [1]) does the source give for COc1ccc2c(c1)C/C(=C\c1cc(-c3cc(OC)c(OC)c(OC)c3)n[nH]1)C2=O here?
A: Its IC50 is 2.1 µM.

Q: What about the IC50 (MDA-MB-231) of the same compound?
A: The IC50 was 2 µM.

Q: What does the source list for COc1cc2c(cc1OC)C(=O)/C(=C/c1cc(-c3cc(OC)c(OC)c(OC)c3)n[nH]1)C2?
A: IC50 (MCF7 [1]): 2 µM; IC50 (MDA-MB-231): 2.5 µM

Q: What does the source list for COc1cc(-c2cc(/C=C3\Cc4ccccc4C3=O)[nH]n2)cc(OC)c1OC?
A: IC50 (MCF7 [1]): 4.8 µM; IC50 (MDA-MB-231): 7.1 µM

Q: O=C1/C(=C/c2cc(-c3ccc4c(c3)OCO4)n[nH]2)CCc2ccccc21 was tested. Which IC50 (MCF7 [1]) did it give?
A: Its IC50 is 9.9 µM.

Q: And the IC50 (MDA-MB-231)?
A: Its IC50 is 12.6 µM.

Q: O=C(/C=C/c1cc(-c2ccc3c(c2)OCO3)n[nH]1)c1ccc(F)c(F)c1 was tested. Which IC50 (MCF7 [1]) did it give?
A: Its IC50 is 8.1 µM.

Q: And the IC50 (MDA-MB-231)?
A: The IC50 was 12.1 µM.

Q: COc1ccc2c(c1)C/C(=C\c1cc(-c3ccc4c(c3)OCO4)n[nH]1)C2=O was tested. Which IC50 (MCF7 [1]) did it give?
A: The IC50 was 2.7 µM.

Q: And the IC50 (MDA-MB-231)?
A: The IC50 was 4.1 µM.

Q: O=C1CCCC/C1=C\c1cc(-c2ccc3c(c2)OCO3)n[nH]1 was tested. Which IC50 (MCF7 [1]) did it give?
A: Its IC50 is 15.1 µM.

Q: And the IC50 (MDA-MB-231)?
A: The IC50 was 11.8 µM.

Q: Which results are given for O=C(/C=C/c1cc(-c2ccc3c(c2)OCO3)n[nH]1)c1ccc2c(c1)OCO2?
A: IC50 (MCF7 [1]): 2.1 µM; IC50 (MDA-MB-231): 3.3 µM

Q: Which results are given for COc1ccc(C(=O)/C=C/c2cc(-c3ccc4c(c3)OCO4)n[nH]2)cc1?
A: IC50 (MCF7 [1]): 3.5 µM; IC50 (MDA-MB-231): 3.5 µM

Q: COc1ccc(C(=O)/C=C/c2cc(-c3ccc4c(c3)OCO4)n[nH]2)cc1F was tested. Which IC50 (MCF7 [1]) did it give?
A: Its IC50 is 13.5 µM.

Q: What about the IC50 (MDA-MB-231) of the same compound?
A: Its IC50 is 15.9 µM.

Q: What does the source list for COc1cc(-c2cc(/C=C/C(=O)c3ccccc3)[nH]n2)cc(OC)c1OC?
A: IC50 (MCF7 [1]): 2.1 µM; IC50 (MDA-MB-231): 2.3 µM

Q: How did the IC50 (MCF7 [1]) turn out when COc1cc(-c2cc(/C=C3\CCc4ccccc4C3=O)[nH]n2)cc(OC)c1OC was run?
A: The IC50 was 8.5 µM.

Q: What about the IC50 (MDA-MB-231) of the same compound?
A: The IC50 was 9.5 µM.
